Data as given in patent US20030186943A1, “Substituted gamma-phenyl-delta-lactams and uses related thereto” (Inflazyme Pharmaceuticals Ltd., priority 1998, published 2003).
“And” between values parts separate entries of the source, which are not always exact repeats. Equal values may be shown once.

Tests used:
[1] = system: TNBS-induced colitis in the rat; experiment: TNBS-induced colitis model of inflammatory bowel disease in the rat; conditions: for MPO Activity (U/mg): colonic tissue;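 as to all read-outs here: rat colitis induced by intracolonic TNBS in 50% ethanol, distal colon assessed at sacrifice on day 7, with saline-instilled vehicle-treated rats as controls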
Description: Colitis was induced by intracolonic instillation of the hapten TNBS (60 mg/mL) in 0.5 mL of 50% ethanol. […] An additional group of rats received saline intracolonically in place of TNBS/ethanol and was treated with vehicle at the same times as outlined above. Body weights were recorded at the beginning of the study and at days 2 and 7.
The rats were sacrificed on the 7th day after the induction of colitis and the extent of damage and inflammation was assessed. After the rats were sacrificed, the distal colon was removed and pinned out on a wax platform. The presence or absence of diarrhea was noted, as well as the presence and severity of adhesions between the colon and other organs, and the severity and extent of colonic damage. […] After scoring, a sample of colonic tissue was excised for measurement of myeloperoxidase activity as an index of granulocyte infiltration (see Wallace et al., Gastroenterology 117: in press, 1999; and Morris et al., Gastroenterology 96:795-803, 1989). This tissue sample was 1 cm long (along the axis of the colon) and 5 mm wide and was taken from a region of macroscopically visible damage (or the corresponding region in any rats in which there was no damage). The remainder of the tissue was fixed in neutral buffered formalin and processed by routine methods for subsequent evaluation by light microscopy. In a blinded manner, the sample of colonic tissue from each rat was examined for evidence of mucosal ulceration and inflammation. The percentage of the luminal surface of the section in which ulceration was present was calculated.

[2] = system: mixed-lymphocyte-reaction; experiment: One way and two way mixed-lymphocyte-reaction (MLR); type: cell-based; conditions: read-out: inhibition of proliferation in MLR
[3] = system: collagen-induced arthritis (CIA) in the mouse; experiment: Murine collagen-induced arthritis model; type: in vivo
Description: Male DBA/1J mice (7-8 weeks of age) were immunized through a subcutaneous injection of 0.1 mL of a collagen-adjuvant emulsion (0.1 mg chick type II collagen in complete Freund's adjuvant) at the base of the tail. Mice were then randomly assigned to treatment or control groups in the following manner: Compound 43 (n=10); 45% 2-hydroxypropyl betacyclodextrin in 0.9% saline vehicle control (n-10); untreated (n=5) and dexamethasone positive control (n=5). After three weeks the animals were boosted with a second injection of chick type II collagen emulsified at 1.0 mg/mL in incomplete Freund's adjuvant. This second injection is required for reproducible induction of disease. In control animals, clinical signs of arthritis manifested as erythema and edema of the paws and tarsal/metatarsal joints usually appear within 1-2 weeks following the second immunization. Compounds were evaluated for their ability to delay the onset of or reduce the development of arthritis (prophylactic regime). Vehicle, dexamethasone positive control (0.075 mg/kg) and compound 43 (10 mg/kg) were administered twice daily (50 microliter per injection) by i.p. injection beginning on the day of the second collagen injection. The mice continued to receive doses until the last animal in the vehicle control group reached the seventh day of having established disease. In this particular case, this necessitated treatment for 25 days including the day of the booster injection.
The development of clinical arthritis (disease progression) was monitored daily after the second collagen injection. All four limbs were clinically evaluated by a trained observer unfamiliar (blinded) with the treatment group identity, and scored on a scale of 0-4 for disease severity (redness and swelling) according to the following criteria.
Inflammation was defined as any redness or swelling (enlargement) of any part of any paw. Established disease was defined as a qualitative score of paw inflammation of 2 or greater, that persists for at least 24 hours. In addition, paw widths for all four limbs were measured by a blinded observer daily using precision, constant tension calipers.
At the end of the study each animal was euthanized by an overdose of halothane anesthesia. Joints both distal to the knee and including the knee were dissected and analyzed by histology. Limb joints were fixed in 10% formalin buffer and decalcified in 10% formic acid for 48 hours, then processed for paraffin embedding. Serial sections (5-7 micrometer thick) were stained with haematoxylin and eosin (H & E). Histopathological alterations of the tarsal and metatarsal joints were graded “blind” by a certified pathologist and a score assigned based on a ranking system.
Mice were sacrificed on the 25th day after the second collagen injection corresponding to approximately the 10th day of established disease. All four paws from each animal in the study were removed, fixed and processed for blinded histopathological examination by an ACVP board certified veterinary pathologist. Joint pathology for each foot was classified on a scale of 0 to 4, with 0 being normal and 4 the most severely affected. Lesion grades were assigned based on the most severe lesion(s) present in the paw according to the following scale:
The individual paw scores were then summed to obtain a total for each animal with a maximum possible score for an animal being 16. Group values were obtained by averaging the individual animal scores.

Th1 cells = experiment: Proliferation of differentiated Th1 CD4+ T cells; type: cell-based, mouse; conditions: CD4+ T cells already differentiated into Th1 phenotype
Description: The differentiation of naive CD4 T cells toward Th1 and Th2 lineages was performed as follows: 1×10^5 AND-lymph node T cells were cultured with […] B10.BR irradiated spleen cells in 2 ml of culture media with the following supplements: for Th1 cell differentiation, 100 U/mL IFNγ, 25U/mL IL2 and 10 ug/mL anti-IL4; for Th2 cell differentiation, 150 U/mL IL4, 25 U/mL IL2 and 10 ug/mL anti-IFNγ. After 3-4 days the wells were split 1:4 with the same additions. After 7 days the cells were harvested and washed 3 times to remove cytokines in the supernatents. 1×10^5 cultured cells were restimulated with 5×10^5 irradiated B10BR spleen cells +5 μM pcc peptide in 250 μl culture media without any added cytokines. The supernatents were harvested after 40 hrs and assessed for IL2, IL4 and IFNγ by ELISA. Test compounds were added throughout the differentiation of the culture.
Cultured Th1 and Th2 cells generated in the absence of test compounds were tested for proliferation and cytokine activity as described above during antigen stimulation in the presence of compound.

[4] = system: T1, High Affinity Rolipram Binding Site of PDE4 in Mouse Brain; experiment: Displacement of [3H]-rolipram from its high affinity binding site (HARBS)
T1 construct: other: mouse brain membranes, [3H]-Rolipram; X marks this range; other: mouse brain membranes, [3H]; Suspension was centrifuged twice at 30,000×G at 4° C. and the supernatant discarded

[5] = 10 mg/kg intracolonically at 12 h intervals for one week, day 7
[6] = 10 mg/kg i.p. twice daily, prophylactic, Day 25 after collagen boost

## COc1cc(CC2C[C@@H](c3ccc(OC)c(OC4CCCC4)c3)COC2=O)ccc1O (some centres unmarked) [Compound 43]
[1]; 10 mg/kg
  colonic damage score (% of vehicle): 49 % of vehicle
  histological score (% of control): 52 % of control
  incidence of adhesions (% of vehicle): 36 % of vehicle
  thickness of the bowel wall (% of vehicle): 30 % of vehicle
  total reduction in the global colitis score compared to vehicle treated animals: 51%
[1]; 10 mg/kg intracolonically at 12 h intervals for one week
  Mortality: 0/8
[1]; [5]
  Adhesion (Incidence): (3/8)^ζ
  Adhesion Score: 0.5 ± 0.3
  Bowel Thickness (mm): 1.67 ± 0.28 mm
  Damage Score: 3.4 ± 0.9
  Global Colitis Score: 5.86 ± 1.35
  MPO Activity (U/mg): 65.1 ± 8.6 U/mg
[1]; 10 mg/kg intracolonically at 12 h intervals for one week, day 7, 10 mg/kg
  MPO Activity (U/mg): not prevented
[1]; incidence, 10 mg/kg intracolonically at 12 h intervals for one week, day 7, 10 mg/kg
  Diarrhea: not statistically significant and 3/8
[1]; percentage of luminal surface ulcerated, 10 mg/kg intracolonically for one week, day 7
  Histology Score: 50.6 ± 10.5
[2]
  inhibition at 20 µM: ≥ 50%
[3]; 10 mg/kg i.p. bid, day 25
  reduction of arthritis score compared to the vehicle group: 35%
  reduction of histopathological score compared to the vehicle group: 29%
  reduction of paw edema compared to the vehicle group: 42%
[3]; 10 mg/kg i.p. twice daily, Day 25, maximum possible score 16
  Histopathological Score (range): 7.7 (1-15)
[3]; [6]
  Paw Arthritis Score: 3.3 ± .64
  Paw Edema (1/100 in.): 0.052 ± .0051 1/100 in.
[3]; 10 mg/kg i.p., bid, last 10 days of the study
  rate of disease progression as assessed by paw score: significantly reduced
Th1 cells
  inhibition of Th1 cells: approx. 30%
[4]
  times less potent than rolipram for interaction with the HARBS conformer of PDE4: approximately 28 fold
[4]; read-out: IC50 for displacement of 3H-rolipram from high-affinity binding site (HARBS activity), mouse brain
  IC50: 250 nM
